4 molecules from US20240189292A1 (priority 2021, published 2024) can be followed below.

The data set is described as follows: in vivo. Also noted: species or system SD rats. Conditions: male, SD, rat, plasma; for AUC: read-out: Area Under Curve AUC; for clearance: read-out: Clearance Rate Cl; for C0: read-out: Initial Concentration C0; for Vd: read-out: Volume of Distribution Vd; for bioavailability: read-out: Bioavailability F; for Cmax: read-out: Peak Concentration Cmax.
[1] abbreviates: iv, 0.2 mg/kg, read-out: Half-life T1/2 (converted).
Setting [2] is: po, 1 mg/kg, read-out: Peak Concentration Time T1/2 (converted).

Read-outs that look alike come from different tables or passages of the source.

Turning to `C[C@H](NC1=CC(=O)C2(CCCC2)C(=O)N1)c1ccccc1` [Compound 3], for the setting “iv, 0.2 mg/kg”, the area under the curve (AUC) was found to be 1.33 µM·h, the clearance came to 8.11 mL/min/kg, the C0 amounted to 773 nM and the Vd came to 1.6 L/kg. For the same molecule, the half-life under setting [1] is 2.31 h. In addition, where the note is “po, 1 mg/kg”, the AUC turned out to be 7.32 µM·h, the bioavailability was 110% and the Cmax stood at 1380 nM. For the same molecule, the half-life under setting [2] was 4.81 h.

As to `C[C@H](NC1=CC(=O)C2(CCCC2)C(=O)N1)c1cccc(Cl)c1` [Compound 7], for the setting “iv, 0.2 mg/kg”, the AUC came out at 3.53 µM·h, the clearance came out at 2.93 mL/min/kg, the C0 was found to be 3700 nM and the Vd came to 0.885 L/kg. For the same molecule, the half-life under setting [1] was 3.86 h. In addition, under “po, 1 mg/kg”, the AUC was 14.8 µM·h, the bioavailability is 88.1% and the Cmax amounted to 2140 nM. Under setting [2], the half-life was 5.96 h.

For `Cc1ccc(F)c([C@H](C)NC2=CC(=O)C3(CCCC3)C(=O)N2)c1` [Compound 9], where the note is “iv, 0.2 mg/kg”, the AUC turned out to be 2.11 µM·h, the clearance is 4.78 mL/min/kg, the C0 is 4820 nM and the Vd came out at 1.73 L/kg. The half-life under setting [1] was 5.93 h. Also, under “po, 1 mg/kg”, the AUC came to 8.11 µM·h, the bioavailability came to 76.7% and the Cmax worked out at 1940 nM. Further, the half-life under setting [2] was 7.35 h.

As to `C[C@H](NC1=CC(=O)C2(CCCC2)C(=O)N1)c1cc(F)ccc1F` [Compound 10], where the note is “intravenous, 0.2 mg/kg”, the AUC turned out to be 1.29 µM·h, the clearance stood at 6 mL/min/kg, the C0 was 1460 nM and the Vd worked out at 2.7 L/kg. For the same molecule, for the setting “intravenous, 0.2 mg/kg, read-out: Half-life T1/2 (converted)”, the half-life was 6.37 h. Moreover, under “po, 1 mg/kg”, the AUC is 7.93 µM·h and the Cmax amounted to 1310 nM. The half-life under setting [2] was 4.83 h.
